Among the targets are Melanocortin receptor 4 (Homo sapiens, UniProt P32245); Histamine H1 receptor (Homo sapiens, UniProt P35367); D(1A) dopamine receptor (Homo sapiens, UniProt P21728).
A further assay has as its target Histamine H2 receptor (Homo sapiens, UniProt P25021). The assay is classed as functional, cell-based.
Assay [1] deals with Sodium-dependent serotonin transporter (Homo sapiens, UniProt P31645).
For assay [2], the target named is Gamma-aminobutyric acid receptor subunit alpha-1 (Rattus norvegicus, UniProt P62813).
Sequence of Gamma-aminobutyric acid receptor subunit alpha-1 (P62813 whole entry): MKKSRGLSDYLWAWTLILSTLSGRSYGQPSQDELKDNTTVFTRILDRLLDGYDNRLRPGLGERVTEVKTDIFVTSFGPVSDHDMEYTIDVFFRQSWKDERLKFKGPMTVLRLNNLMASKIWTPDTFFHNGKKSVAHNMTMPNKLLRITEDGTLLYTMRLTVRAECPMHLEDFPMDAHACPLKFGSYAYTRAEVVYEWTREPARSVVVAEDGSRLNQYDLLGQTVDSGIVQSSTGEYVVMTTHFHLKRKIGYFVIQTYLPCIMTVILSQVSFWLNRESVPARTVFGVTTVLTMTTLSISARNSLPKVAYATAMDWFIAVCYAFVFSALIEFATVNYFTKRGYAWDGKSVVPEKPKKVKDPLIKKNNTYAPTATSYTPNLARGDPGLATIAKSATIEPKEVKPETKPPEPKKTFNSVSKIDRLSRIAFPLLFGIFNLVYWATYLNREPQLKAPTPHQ
In assay [3] the target is 5-hydroxytryptamine receptor 2A (Homo sapiens, UniProt P28223). Type of assay: functional, cell-based.
Sequence of 5-hydroxytryptamine receptor 2A (P28223 whole entry): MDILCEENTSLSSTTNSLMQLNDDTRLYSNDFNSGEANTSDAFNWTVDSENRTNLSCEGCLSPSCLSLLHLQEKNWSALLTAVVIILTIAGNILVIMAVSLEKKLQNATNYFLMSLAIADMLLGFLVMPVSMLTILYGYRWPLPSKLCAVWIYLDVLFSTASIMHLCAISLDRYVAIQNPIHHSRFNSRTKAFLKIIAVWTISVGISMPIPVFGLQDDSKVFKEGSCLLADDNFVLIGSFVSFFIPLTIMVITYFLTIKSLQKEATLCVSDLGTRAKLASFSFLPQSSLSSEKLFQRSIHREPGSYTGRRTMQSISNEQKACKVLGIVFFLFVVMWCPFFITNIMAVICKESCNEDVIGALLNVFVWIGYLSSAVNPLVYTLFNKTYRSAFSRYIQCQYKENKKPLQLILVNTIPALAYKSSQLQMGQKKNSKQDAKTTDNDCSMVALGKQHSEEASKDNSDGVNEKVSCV
Assay [4] concerns the target T1, 5-hydroxytryptamine receptor 1A (Homo sapiens, UniProt P08908).
T1 sequence (P08908 whole entry): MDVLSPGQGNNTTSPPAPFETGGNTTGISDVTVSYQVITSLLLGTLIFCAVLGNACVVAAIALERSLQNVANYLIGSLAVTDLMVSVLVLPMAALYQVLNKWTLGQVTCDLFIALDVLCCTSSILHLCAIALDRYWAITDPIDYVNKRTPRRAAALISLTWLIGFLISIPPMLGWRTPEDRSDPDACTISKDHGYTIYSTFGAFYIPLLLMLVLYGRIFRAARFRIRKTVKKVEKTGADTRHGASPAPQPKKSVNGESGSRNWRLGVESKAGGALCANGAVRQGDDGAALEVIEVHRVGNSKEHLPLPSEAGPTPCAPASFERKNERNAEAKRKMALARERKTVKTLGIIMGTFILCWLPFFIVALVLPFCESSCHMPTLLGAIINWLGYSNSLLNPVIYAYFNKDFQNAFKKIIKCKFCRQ
Type of assay: functional, cell-based.

The target of assay [5] is T2, Alpha-1A adrenergic receptor (Homo sapiens, UniProt P35348).
T2 sequence (P35348 whole entry): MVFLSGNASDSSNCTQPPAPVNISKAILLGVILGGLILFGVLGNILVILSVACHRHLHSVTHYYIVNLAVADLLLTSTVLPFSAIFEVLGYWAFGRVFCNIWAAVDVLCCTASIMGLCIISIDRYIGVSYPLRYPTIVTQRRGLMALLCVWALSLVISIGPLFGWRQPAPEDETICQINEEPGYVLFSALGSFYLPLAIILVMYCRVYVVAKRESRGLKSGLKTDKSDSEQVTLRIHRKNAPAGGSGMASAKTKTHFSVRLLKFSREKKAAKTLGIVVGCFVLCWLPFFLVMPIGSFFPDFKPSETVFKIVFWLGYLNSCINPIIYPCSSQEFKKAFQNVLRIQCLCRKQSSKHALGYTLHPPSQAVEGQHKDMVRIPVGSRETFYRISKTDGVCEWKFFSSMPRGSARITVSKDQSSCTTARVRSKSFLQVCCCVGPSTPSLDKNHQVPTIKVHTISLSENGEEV

A further assay has as its target T3, B2 bradykinin receptor (Homo sapiens, UniProt P30411).
T3 sequence (P30411 whole entry): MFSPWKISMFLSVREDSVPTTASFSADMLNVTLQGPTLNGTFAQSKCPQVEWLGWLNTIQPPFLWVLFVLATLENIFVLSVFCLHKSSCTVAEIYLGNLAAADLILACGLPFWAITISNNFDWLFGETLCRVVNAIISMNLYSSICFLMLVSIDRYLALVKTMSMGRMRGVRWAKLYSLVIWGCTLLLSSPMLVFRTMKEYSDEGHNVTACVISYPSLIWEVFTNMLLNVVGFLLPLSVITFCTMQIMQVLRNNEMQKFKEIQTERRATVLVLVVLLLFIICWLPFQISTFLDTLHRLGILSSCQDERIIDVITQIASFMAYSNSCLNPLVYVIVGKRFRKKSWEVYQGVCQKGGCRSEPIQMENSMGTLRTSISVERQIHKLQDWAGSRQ

The target in a further assay is Acetylcholinesterase (Homo sapiens, UniProt P22303). The assay is classed as functional.
Sequence of Acetylcholinesterase (P22303 whole entry): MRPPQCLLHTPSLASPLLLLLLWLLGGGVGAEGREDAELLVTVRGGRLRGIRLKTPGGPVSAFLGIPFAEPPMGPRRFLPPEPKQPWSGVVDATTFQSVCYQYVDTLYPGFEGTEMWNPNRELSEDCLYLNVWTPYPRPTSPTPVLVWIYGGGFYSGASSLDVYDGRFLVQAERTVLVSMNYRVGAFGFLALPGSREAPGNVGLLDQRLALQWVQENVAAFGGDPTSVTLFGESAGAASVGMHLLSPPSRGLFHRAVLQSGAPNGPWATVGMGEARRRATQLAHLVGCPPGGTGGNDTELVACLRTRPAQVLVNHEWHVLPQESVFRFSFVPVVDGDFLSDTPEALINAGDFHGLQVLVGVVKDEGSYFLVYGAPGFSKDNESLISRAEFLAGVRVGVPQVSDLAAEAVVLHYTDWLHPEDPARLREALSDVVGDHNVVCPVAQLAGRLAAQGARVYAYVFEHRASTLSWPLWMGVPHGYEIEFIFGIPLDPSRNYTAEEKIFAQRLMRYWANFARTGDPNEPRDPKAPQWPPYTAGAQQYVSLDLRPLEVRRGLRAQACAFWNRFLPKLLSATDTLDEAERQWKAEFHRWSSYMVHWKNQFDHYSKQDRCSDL
The target in assay [6] is 3',5'-cyclic-AMP phosphodiesterase 4A (Homo sapiens, UniProt P27815). The assay is classed as functional.
Assay [7] addresses T2, Alpha-1A adrenergic receptor. The assay is classed as functional, cell-based.
The target in assay [8] is T1, 5-hydroxytryptamine receptor 1A.
Assay [9] concerns the target Prostaglandin G/H synthase 1 (Homo sapiens, UniProt P23219). The assay is classed as functional.
In a further assay the target is T4, Adenosine receptor A3 (Homo sapiens, UniProt P0DMS8).
T4 sequence (P0DMS8 whole entry): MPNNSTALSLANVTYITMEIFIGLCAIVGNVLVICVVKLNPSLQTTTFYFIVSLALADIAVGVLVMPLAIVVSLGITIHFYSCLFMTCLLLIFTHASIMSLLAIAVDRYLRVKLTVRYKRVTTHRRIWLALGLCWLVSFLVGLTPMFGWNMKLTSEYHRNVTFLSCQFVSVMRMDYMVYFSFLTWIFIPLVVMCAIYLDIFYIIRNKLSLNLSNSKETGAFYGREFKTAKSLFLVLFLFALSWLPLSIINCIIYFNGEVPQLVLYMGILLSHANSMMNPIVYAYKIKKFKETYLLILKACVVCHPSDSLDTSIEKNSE

Assay [10] has as its target Beta-1 adrenergic receptor (Homo sapiens, UniProt P08588). The assay is classed as functional.
The target of assay [11] is T5, Cannabinoid receptor 1 (Homo sapiens, UniProt P21554). Type of assay: functional, cell-based.
T5 sequence (P21554 whole entry): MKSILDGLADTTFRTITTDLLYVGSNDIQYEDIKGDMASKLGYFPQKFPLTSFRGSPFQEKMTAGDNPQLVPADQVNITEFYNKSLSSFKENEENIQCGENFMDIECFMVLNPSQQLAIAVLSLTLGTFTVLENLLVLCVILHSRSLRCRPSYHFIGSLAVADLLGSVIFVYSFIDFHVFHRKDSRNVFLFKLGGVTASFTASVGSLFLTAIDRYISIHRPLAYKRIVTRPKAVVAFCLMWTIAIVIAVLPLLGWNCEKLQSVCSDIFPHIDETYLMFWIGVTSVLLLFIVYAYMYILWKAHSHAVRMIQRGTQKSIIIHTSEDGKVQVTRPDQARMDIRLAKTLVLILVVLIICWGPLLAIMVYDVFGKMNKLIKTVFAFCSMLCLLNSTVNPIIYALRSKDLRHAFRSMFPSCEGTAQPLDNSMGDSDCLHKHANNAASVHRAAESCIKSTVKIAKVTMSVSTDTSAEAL
Assay [12] addresses T5, Cannabinoid receptor 1. The assay is classed as functional, cell-based. This is another data set of the same source.

For 15 compounds, AC50 results are on record in ChEMBL document CHEMBL5291721, “A preclinical secondary pharmacology resource illuminates target-adverse drug reaction associations of marketed drugs” (Nat Commun, 2023).

Usually AC50 stands for the midpoint of the concentration-response curve, whichever way the signal moves. Higher therefore signals activity only at high concentration.

Each structure is given as a SMILES string. A value given as a limit tells only on which side of the number the result lay.
Note: assay procedure not described here.

Sequence of Prostaglandin G/H synthase 1 (P23219 whole entry): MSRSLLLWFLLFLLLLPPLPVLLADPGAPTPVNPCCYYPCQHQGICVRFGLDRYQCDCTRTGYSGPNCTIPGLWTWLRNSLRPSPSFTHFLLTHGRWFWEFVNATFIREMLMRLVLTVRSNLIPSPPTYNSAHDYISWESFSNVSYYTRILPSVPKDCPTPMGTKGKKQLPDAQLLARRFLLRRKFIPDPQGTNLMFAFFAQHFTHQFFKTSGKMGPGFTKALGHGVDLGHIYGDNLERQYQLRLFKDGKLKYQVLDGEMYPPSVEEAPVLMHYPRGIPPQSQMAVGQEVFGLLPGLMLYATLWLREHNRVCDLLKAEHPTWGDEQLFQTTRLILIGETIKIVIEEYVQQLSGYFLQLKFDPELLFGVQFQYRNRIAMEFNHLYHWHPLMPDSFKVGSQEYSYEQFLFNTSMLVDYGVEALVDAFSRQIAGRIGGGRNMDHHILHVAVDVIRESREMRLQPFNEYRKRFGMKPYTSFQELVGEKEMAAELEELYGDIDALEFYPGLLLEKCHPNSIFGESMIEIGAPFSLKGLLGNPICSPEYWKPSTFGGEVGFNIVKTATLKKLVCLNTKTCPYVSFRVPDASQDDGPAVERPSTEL
Sequence of Sodium-dependent serotonin transporter (P31645 whole entry): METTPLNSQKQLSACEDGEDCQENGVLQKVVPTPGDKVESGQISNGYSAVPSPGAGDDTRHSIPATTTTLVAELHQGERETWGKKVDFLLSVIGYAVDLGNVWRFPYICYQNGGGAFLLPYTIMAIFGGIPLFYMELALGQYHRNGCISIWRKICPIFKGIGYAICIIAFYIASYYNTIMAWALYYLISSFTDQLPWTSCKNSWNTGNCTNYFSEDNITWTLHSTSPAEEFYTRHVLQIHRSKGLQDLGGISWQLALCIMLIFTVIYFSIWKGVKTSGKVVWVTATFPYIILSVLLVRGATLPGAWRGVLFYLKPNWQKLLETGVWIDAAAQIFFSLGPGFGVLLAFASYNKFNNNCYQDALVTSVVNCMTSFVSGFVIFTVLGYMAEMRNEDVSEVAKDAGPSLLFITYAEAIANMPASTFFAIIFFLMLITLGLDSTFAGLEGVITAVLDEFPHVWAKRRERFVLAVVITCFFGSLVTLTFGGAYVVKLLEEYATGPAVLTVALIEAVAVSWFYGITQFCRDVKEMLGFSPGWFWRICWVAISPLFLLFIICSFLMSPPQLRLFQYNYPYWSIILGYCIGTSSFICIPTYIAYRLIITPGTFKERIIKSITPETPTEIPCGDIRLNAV
Sequence of Histamine H1 receptor (P35367 whole entry): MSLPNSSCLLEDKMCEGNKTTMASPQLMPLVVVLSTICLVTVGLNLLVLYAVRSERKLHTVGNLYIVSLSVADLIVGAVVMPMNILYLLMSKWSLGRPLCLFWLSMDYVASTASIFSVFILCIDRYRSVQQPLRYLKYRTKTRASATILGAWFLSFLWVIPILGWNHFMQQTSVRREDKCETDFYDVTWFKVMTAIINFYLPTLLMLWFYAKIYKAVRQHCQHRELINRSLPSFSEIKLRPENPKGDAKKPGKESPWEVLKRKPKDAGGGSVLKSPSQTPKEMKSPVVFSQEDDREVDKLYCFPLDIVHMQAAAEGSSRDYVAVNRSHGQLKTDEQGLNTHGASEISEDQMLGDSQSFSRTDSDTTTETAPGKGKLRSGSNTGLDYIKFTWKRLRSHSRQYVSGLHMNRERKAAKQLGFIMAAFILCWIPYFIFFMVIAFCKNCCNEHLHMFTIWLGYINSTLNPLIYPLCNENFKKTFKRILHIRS
Sequence of Beta-1 adrenergic receptor (P08588 whole entry): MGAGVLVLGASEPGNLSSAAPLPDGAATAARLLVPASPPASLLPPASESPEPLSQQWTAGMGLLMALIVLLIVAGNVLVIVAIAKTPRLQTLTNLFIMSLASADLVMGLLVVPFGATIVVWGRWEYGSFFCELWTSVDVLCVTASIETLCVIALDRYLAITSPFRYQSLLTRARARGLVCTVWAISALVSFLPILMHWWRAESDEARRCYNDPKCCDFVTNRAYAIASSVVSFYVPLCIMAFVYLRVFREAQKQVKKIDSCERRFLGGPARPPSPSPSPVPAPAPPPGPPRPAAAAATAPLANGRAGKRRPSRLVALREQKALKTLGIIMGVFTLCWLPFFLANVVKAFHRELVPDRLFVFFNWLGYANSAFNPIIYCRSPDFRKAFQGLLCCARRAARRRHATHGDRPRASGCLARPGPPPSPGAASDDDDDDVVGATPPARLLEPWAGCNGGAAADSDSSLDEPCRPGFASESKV
Sequence of Melanocortin receptor 4 (P32245 whole entry): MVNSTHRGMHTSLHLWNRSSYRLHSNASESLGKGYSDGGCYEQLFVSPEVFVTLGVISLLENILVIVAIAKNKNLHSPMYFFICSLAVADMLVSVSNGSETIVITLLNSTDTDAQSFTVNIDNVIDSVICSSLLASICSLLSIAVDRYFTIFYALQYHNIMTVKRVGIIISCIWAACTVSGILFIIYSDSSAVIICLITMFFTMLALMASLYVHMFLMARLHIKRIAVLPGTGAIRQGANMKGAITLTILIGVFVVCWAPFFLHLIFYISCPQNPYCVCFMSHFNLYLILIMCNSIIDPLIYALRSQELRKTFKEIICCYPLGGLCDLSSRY
Sequence of Histamine H2 receptor (P25021 whole entry): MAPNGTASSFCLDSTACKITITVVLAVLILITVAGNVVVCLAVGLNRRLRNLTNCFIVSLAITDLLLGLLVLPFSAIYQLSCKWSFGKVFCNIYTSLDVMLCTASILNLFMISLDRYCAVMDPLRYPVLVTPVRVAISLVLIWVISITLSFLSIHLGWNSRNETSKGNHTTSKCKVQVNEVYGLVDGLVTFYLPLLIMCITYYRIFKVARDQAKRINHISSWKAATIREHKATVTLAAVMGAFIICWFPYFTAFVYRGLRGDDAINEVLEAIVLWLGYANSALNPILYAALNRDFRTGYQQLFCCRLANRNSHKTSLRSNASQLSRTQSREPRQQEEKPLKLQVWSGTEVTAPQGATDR

Consider `CC(C(=O)O)c1ccc(C(=O)c2cccs2)cc1` (centres undefined) [SUPROFEN], for which the AC50 (at Melanocortin receptor 4; at Histamine H2 receptor; in assay [1]; in assay [2]; at Histamine H1 receptor; in assay [3]) was greater than 10 µM each time. Moreover, the AC50 (in [4]; in assay [5]; at B2 bradykinin receptor) was greater than 10 µM in each case.

Take `O=C1c2ccccc2C(=O)C1C(=O)C(c1ccccc1)c1ccccc1` [DIPHENADIONE]: the AC50 at Acetylcholinesterase was greater than 30 µM; in assay [6] it was greater than 30 µM; in [7], 4.95 µM; in [8], greater than 30 µM; in assay [9], 15.6 µM; on D(1A) dopamine receptor it was greater than 30 µM. The compound further showed an AC50 at Adenosine receptor A3 of 0.716 µM.

In the case of `O=C1c2c(O)c(=O)ccn2N([C@@H]2c3ccccc3SCc3c2ccc(F)c3F)[C@@H]2COCCN12` [BALOXAVIR], the AC50 (on Acetylcholinesterase; in assay [6]; in assay [7]; in assay [8]; in [9]; at D(1A) dopamine receptor) was greater than 30 µM each time. On Adenosine receptor A3, this compound came in with an AC50 greater than 30 µM.

`CCC(=O)c1c(O)cc(O)cc1O` [FLOPROPIONE]: the AC50 is greater than 30 µM on Acetylcholinesterase; greater than 30 µM in assay [6]; greater than 30 µM in assay [7]; greater than 30 µM in assay [8]; 22.3 µM in assay [9]; greater than 30 µM on D(1A) dopamine receptor. Also, the AC50 on Adenosine receptor A3 is greater than 30 µM.

Consider `O=C1CC[C@@]2(O)[C@H]3Cc4ccc(O)c5c4[C@@]2(CCN3CC2CC2)[C@H]1O5` [NALTREXONE], for which the AC50 (at Acetylcholinesterase; in [6]; in assay [7]; in assay [8]; in assay [9]; at D(1A) dopamine receptor) was greater than 30 µM throughout. Further, the AC50 at Adenosine receptor A3 is greater than 30 µM.

With `CN(C)C(=O)Oc1ccc[n+](C)c1` [PYRIDOSTIGMINE], the AC50 (in assay [6]; in assay [7]; in assay [8]; in assay [9]; at D(1A) dopamine receptor; at Adenosine receptor A3) was greater than 30 µM in each case.

As to `CN1C(=O)CC(C)(c2ccccc2)C1=O` (centres undefined) [METHSUXIMIDE], the AC50 was greater than 10 µM on Melanocortin receptor 4; greater than 10 µM in assay [10]; greater than 30 µM at Histamine H2 receptor; greater than 10 µM in assay [1]; greater than 10 µM in assay [2]; greater than 10 µM on Histamine H1 receptor. Further, the AC50 in assay [3] is greater than 10 µM; in [4] it was greater than 10 µM; in assay [5], greater than 30 µM; at B2 bradykinin receptor it was greater than 10 µM.

As to `C[C@@H]1O[C@@H]1P(=O)(O)O` [FOSFOMYCIN], the AC50 (on Melanocortin receptor 4; in assay [10]; at Histamine H2 receptor; in assay [1]; in assay [2]; on Histamine H1 receptor) was greater than 10 µM throughout. The AC50 (in assay [3]; in assay [4]; in assay [5]; at B2 bradykinin receptor) was greater than 10 µM throughout.

Turning to `CC(C)NCC(O)COc1ccc(COCCOC(C)C)cc1` (centres undefined) [BISOPROLOL], the AC50 on Melanocortin receptor 4 was greater than 30 µM; at Histamine H2 receptor, greater than 10 µM; in assay [1] it was greater than 10 µM; in assay [2] it was greater than 10 µM; at Histamine H1 receptor, greater than 10 µM; in assay [3] it was greater than 30 µM. For the same compound, the AC50 was greater than 10 µM in assay [4], greater than 10 µM in [5] and greater than 30 µM at B2 bradykinin receptor.

`COC(=O)[C@@H]1CC2=CC(=O)CC[C@]2(C)[C@@]23O[C@@H]2C[C@@]2(C)[C@@H](CC[C@@]24CCC(=O)O4)[C@H]13` [EPLERENONE]: the concentration at half-maximal activity (AC50) is greater than 30 µM on Melanocortin receptor 4; greater than 30 µM at Cannabinoid receptor 1 [11]; greater than 30 µM in assay [10]; greater than 10 µM on Histamine H2 receptor; greater than 30 µM in assay [1]; greater than 10 µM in assay [2]. Moreover, the AC50 on Histamine H1 receptor was greater than 30 µM; in [3], greater than 30 µM; at Cannabinoid receptor 1 [12], greater than 30 µM; in [4], greater than 30 µM; in [5], greater than 10 µM; at B2 bradykinin receptor, greater than 30 µM.

For `Cc1ccc(C(=O)c2cc(O)c(O)c([N+](=O)[O-])c2)cc1` [TOLCAPONE], the half-maximal activity concentration (AC50) is greater than 10 µM on Melanocortin receptor 4; greater than 10 µM in [10]; greater than 10 µM on Histamine H2 receptor; greater than 30 µM in assay [1]; greater than 10 µM in assay [2]; greater than 10 µM on Histamine H1 receptor. Further, the AC50 in assay [3] is greater than 10 µM; in assay [4], 5.6 µM; in assay [5], 14.6 µM; at B2 bradykinin receptor, greater than 10 µM.

As to `C#C[C@]1(O)CC[C@H]2[C@@H]3CCc4cc(O)ccc4[C@H]3CC[C@@]21C` [ETHINYL ESTRADIOL], the AC50 at Acetylcholinesterase is greater than 30 µM; in assay [6] it was 20.1 µM; at Melanocortin receptor 4, greater than 30 µM; in assay [10], greater than 10 µM; in [7], greater than 30 µM; on Histamine H2 receptor, greater than 10 µM. Moreover, the AC50 in assay [8] is greater than 30 µM; in [2], greater than 10 µM; in assay [9], greater than 30 µM; at D(1A) dopamine receptor it was greater than 30 µM; in assay [5], greater than 10 µM; on B2 bradykinin receptor, greater than 30 µM.

On to `Cc1cc(O)cc(C)c1Cl` [CHLOROXYLENOL], for which the AC50 at Acetylcholinesterase was greater than 30 µM; in [6] it was greater than 30 µM; in assay [8], greater than 30 µM; in assay [9], greater than 3 µM; on D(1A) dopamine receptor, greater than 30 µM; at Adenosine receptor A3, greater than 30 µM.

For the compound `COC(=O)N[C@H](C(=O)N[C@@H](Cc1ccccc1)[C@@H](O)CN(Cc1ccc(-c2ccccn2)cc1)NC(=O)[C@@H](NC(=O)OC)C(C)(C)C)C(C)(C)C` [ATAZANAVIR], the AC50 at Melanocortin receptor 4 is greater than 30 µM; in assay [10] it was greater than 10 µM; at Histamine H2 receptor, greater than 10 µM; in [1] it was greater than 30 µM; in assay [2], greater than 10 µM; at Histamine H1 receptor, greater than 10 µM. For the same compound, the AC50 is greater than 10 µM in assay [3], greater than 10 µM in assay [4], greater than 10 µM in assay [5] and greater than 30 µM at B2 bradykinin receptor.

Consider `O=C(CCCCCCC(=O)Nc1ccccc1)NO` [VORINOSTAT], for which the AC50 at Melanocortin receptor 4 is greater than 30 µM; at Cannabinoid receptor 1 [11], greater than 30 µM; in assay [10], greater than 30 µM; on Histamine H2 receptor it was greater than 30 µM; in assay [1] it was greater than 30 µM; in assay [2], greater than 10 µM. Besides, the AC50 at Histamine H1 receptor was greater than 30 µM; in assay [3], greater than 30 µM; on Cannabinoid receptor 1 [12], greater than 30 µM; in [4], greater than 30 µM; in assay [5], greater than 10 µM; on B2 bradykinin receptor, greater than 30 µM.
